Measurements reported in ChEMBL document CHEMBL4476867, “Hydroxy formamide derivatives and their use” (2016).

Key:
Assay type in all cases: cell-based
Tolloid-like protein 1 = Tolloid-like protein 1 (Homo sapiens, UniProt O43897, I156V/N221S/V284A); experiment: Inhibition of recombinant human TLL1 I156V/N221S/V284A mutant expressed in CHOE1A cells pre-incubated for 10 mins before promyostatin peptide substrate addition and measured after 60 mins by FRET based assay
[1] = target: T1, Bone morphogenetic protein 1 (Homo sapiens, UniProt P13497); experiment: Inhibition of C-terminal FLAG-6x-His epitope tagged and N-terminal human RAGE signal sequence tagged human BMP1 (23 to 721 amino acids) expressed in CHO-E1 cells pre-incubated for 10 mins before promyostatin peptide substrate addition and measured after 30 mins using 50 nM BMP1 by FRET based assay
T1 sequence (P13497 whole entry): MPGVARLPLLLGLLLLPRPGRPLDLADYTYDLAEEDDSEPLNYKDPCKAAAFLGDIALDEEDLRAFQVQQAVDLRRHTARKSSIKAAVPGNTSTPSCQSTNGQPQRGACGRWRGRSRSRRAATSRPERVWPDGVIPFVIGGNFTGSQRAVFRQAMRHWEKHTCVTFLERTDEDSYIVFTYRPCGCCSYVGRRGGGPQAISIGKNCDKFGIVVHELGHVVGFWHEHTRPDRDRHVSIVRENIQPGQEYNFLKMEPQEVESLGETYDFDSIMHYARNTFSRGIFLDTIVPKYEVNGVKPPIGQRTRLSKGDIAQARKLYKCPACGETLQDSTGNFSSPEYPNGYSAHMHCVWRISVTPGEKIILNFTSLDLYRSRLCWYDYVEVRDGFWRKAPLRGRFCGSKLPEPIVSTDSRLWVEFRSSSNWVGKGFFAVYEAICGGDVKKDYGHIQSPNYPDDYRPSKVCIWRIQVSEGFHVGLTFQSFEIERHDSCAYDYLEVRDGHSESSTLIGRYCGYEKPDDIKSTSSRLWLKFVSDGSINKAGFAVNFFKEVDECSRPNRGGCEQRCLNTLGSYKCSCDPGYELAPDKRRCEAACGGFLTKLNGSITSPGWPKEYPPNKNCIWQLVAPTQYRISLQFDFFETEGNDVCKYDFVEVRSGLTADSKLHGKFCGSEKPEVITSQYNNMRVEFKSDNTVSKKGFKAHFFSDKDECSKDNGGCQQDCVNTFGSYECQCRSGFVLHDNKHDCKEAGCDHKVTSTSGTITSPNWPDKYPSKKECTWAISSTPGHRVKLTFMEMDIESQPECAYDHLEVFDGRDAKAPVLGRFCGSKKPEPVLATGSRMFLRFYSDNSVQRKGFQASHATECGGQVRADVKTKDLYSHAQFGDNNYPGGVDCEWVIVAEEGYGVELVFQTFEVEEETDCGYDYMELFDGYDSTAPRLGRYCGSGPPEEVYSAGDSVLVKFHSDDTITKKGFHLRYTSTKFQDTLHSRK

[2] = target: T1, Bone morphogenetic protein 1; experiment: Inhibition of C-terminal FLAG-6x-His epitope tagged and N-terminal human RAGE signal sequence tagged human BMP1 (23 to 721 amino acids) expressed in CHO-E1 cells pre-incubated for 10 mins before promyostatin peptide substrate addition and measured after 60 mins using 0.5 nM BMP1 by FRET based assay
Tolloid-like protein 2 = target: T2, Tolloid-like protein 2 (Homo sapiens, UniProt Q9Y6L7); experiment: Inhibition of C-terminal Avi-6x-His epitope tagged and N-terminal human RAGE signal sequence tagged recombinant human TLL2 (26 to 1015 amino acids) expressed in CHOE1A cells incubated for 60 mins with promyostatin peptide substrate by FRET based assay
T2 sequence (Q9Y6L7 whole entry): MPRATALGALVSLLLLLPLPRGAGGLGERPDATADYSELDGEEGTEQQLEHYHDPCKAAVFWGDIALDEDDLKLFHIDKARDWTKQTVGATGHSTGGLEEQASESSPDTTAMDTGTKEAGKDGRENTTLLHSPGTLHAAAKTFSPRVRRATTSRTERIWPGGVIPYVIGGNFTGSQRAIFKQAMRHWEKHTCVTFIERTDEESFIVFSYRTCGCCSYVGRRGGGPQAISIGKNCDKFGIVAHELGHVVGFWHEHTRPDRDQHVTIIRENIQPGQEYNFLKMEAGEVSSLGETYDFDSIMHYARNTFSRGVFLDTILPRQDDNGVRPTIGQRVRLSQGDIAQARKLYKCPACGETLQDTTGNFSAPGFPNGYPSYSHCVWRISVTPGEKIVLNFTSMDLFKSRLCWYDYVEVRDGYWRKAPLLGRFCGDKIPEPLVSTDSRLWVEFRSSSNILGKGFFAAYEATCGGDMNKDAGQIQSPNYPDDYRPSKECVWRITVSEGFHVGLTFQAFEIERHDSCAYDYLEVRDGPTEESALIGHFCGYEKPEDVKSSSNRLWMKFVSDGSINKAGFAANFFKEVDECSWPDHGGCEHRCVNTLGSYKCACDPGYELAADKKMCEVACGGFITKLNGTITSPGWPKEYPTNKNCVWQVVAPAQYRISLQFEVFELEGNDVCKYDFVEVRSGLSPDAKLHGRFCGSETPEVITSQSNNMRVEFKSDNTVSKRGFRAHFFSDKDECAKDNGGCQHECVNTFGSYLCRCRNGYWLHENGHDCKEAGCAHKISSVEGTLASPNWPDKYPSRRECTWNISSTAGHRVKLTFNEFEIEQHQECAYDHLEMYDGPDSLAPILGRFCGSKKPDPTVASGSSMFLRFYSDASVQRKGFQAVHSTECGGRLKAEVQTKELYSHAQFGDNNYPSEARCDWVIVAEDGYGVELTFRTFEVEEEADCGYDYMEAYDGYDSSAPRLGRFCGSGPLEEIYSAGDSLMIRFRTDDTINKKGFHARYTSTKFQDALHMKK

Chain of Tolloid-like protein 1 (O43897 148-1013 I156V/N221S/V284A limits assumed): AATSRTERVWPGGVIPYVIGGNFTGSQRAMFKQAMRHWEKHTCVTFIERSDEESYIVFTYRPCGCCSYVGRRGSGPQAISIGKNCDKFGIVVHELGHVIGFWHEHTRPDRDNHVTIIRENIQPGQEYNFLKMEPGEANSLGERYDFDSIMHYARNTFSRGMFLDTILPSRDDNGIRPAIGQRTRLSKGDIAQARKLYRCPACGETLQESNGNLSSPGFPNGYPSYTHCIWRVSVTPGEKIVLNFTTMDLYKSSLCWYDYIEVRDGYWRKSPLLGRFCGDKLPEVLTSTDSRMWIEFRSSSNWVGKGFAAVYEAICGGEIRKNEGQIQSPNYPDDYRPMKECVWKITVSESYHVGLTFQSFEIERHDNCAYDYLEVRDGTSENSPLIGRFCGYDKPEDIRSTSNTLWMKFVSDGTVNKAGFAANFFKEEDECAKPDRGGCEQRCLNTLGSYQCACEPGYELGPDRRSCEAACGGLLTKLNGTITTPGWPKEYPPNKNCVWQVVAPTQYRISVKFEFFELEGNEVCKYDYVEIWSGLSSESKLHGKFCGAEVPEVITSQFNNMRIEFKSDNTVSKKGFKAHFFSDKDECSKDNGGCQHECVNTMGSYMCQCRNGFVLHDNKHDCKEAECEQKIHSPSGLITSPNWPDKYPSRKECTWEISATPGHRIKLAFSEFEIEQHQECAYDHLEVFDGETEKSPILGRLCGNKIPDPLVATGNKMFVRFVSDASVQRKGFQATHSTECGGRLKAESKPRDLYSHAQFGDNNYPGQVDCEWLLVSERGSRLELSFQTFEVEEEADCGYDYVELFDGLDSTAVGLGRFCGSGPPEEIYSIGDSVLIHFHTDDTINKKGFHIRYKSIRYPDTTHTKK

SMILES	IC50 (Tolloid-like protein 1)	IC50 [1]	IC50 [2]	IC50 (Tolloid-like protein 2)	pIC50 [2]
CCCCC[C@H](CN(O)C=O)C(=O)NCNC(=O)c1ccc(-c2cccc(OC)c2)o1	< 0.398 µM	< 0.2 µM	< 0.126 µM	< 0.794 µM	–
CCCCC[C@H](CN(O)C=O)C(=O)NCNC(=O)c1ccc(-c2ccccc2OC)o1	< 0.398 µM	< 0.2 µM	< 0.126 µM	< 0.794 µM	–
CCCCC[C@@H](C(=O)NCNC(=O)C1CCC(c2ccccc2)O1)[C@@H](CC)N(O)C=O (some centres not stated)	< 0.398 µM	< 0.2 µM	< 0.126 µM	< 0.794 µM	–
CCCCC[C@H](CN(O)C=O)C(=O)NCNC(=O)c1ccc(-c2ccc(F)c(OC)c2)o1	< 0.398 µM	< 0.2 µM	< 0.126 µM	< 0.794 µM	–
CCCCC[C@H](CN(O)C=O)C(=O)NCNC(=O)c1ccc(-c2cccc(C(=O)OC(C)(C)C)c2)o1	< 0.398 µM	< 0.2 µM	< 0.126 µM	< 0.794 µM	–
O=CN(O)C[C@@H](CCc1ccccc1)C(=O)NCNC(=O)c1ccc(-c2ccccc2)o1	< 0.398 µM	< 0.2 µM	< 0.126 µM	< 0.794 µM	–
CCCCC[C@H](CN(O)C=O)C(=O)NCNC(=O)c1ccc(-c2cccc(P(C)(=O)OCC)c2)o1 (some centres not stated)	< 0.398 µM	< 0.2 µM	< 0.126 µM	< 0.794 µM	–
CCCCC[C@H](CN(O)C=O)C(=O)NCNC(=O)c1ccc(-c2cccc(S(=O)(=O)N(C)C)c2)o1	< 0.398 µM	< 0.2 µM	< 0.126 µM	< 0.794 µM	–
CCCCC[C@H](CN(O)C=O)C(=O)NCNC(=O)c1ccc(-c2ccc3cn(C)nc3c2)o1	< 0.398 µM	< 0.2 µM	< 0.126 µM	< 0.794 µM	–
CCCCC[C@@H](C(=O)NCNC(=O)c1ccc(-c2ccc(C)c(C(=O)O)c2)o1)[C@@H](CC)N(O)C=O	< 0.398 µM	< 0.2 µM	< 0.126 µM	< 0.794 µM	–
CCCCC[C@@H](C(=O)NCNC(=O)c1ccc(-c2cncc(C(=O)O)c2)o1)[C@@H](CC)N(O)C=O	< 0.398 µM	< 0.2 µM	< 0.126 µM	< 0.794 µM	–
CCCCC[C@@H](C(=O)NCNC(=O)c1ccc(-c2cccc(OCCC)c2)o1)[C@@H](CC)N(O)C=O	< 0.398 µM	< 0.2 µM	< 0.126 µM	< 0.794 µM	–
CCCCC[C@H](CN(O)C=O)C(=O)NCNC(=O)c1ccc(-c2ccc(OC)c(C(=O)O)c2)o1	< 0.398 µM	< 0.2 µM	< 0.126 µM	< 0.794 µM	–
CS(=O)(=O)c1cccc(-c2ccc(C(=O)NCNC(=O)[C@H](CCc3ccccc3)CN(O)C=O)o2)c1	< 0.398 µM	< 0.2 µM	< 0.126 µM	< 0.794 µM	–
CCCCC[C@H](CN(O)C=O)C(=O)NCNC(=O)c1ccc(-c2ccc(C#N)cc2)o1	< 0.398 µM	< 0.2 µM	< 0.126 µM	< 0.794 µM	–
CCCCC[C@@H](C(=O)NCNC(=O)c1ccc(-c2cc(OCC)cc(P(=O)(O)O)c2)o1)[C@@H](CC)N(O)C=O.NC(CO)(CO)CO	–	–	–	–	> 6.9
CCCCC[C@H](CN(O)C=O)C(=O)NCNC(=O)c1ccc(-c2ccccc2C(=O)OC)o1	< 0.398 µM	< 0.2 µM	< 0.126 µM	< 0.794 µM	–

SMILES	IC50 (Tolloid-like protein 1)	IC50 [1]	IC50 [2]	IC50 (Tolloid-like protein 2)	pIC50 [2]
CCCCC[C@H](CN(O)C=O)C(=O)NCNC(=O)c1ccc(-c2cccc(C#N)c2)o1	< 0.398 µM	< 0.2 µM	< 0.126 µM	< 0.794 µM	–
CCCCC[C@H](CN(O)C=O)C(=O)NCNC(=O)c1ccc(-c2ccc(C(=O)OC)cc2)o1	< 0.398 µM	< 0.2 µM	< 0.126 µM	< 0.794 µM	–
CCOc1cc(C(=O)O)cc(-c2ccc(C(=O)NCNC(=O)CCN(O)C=O)o2)c1	< 0.398 µM	< 0.2 µM	< 0.126 µM	–	–
CCCCC[C@H](CN(O)C=O)C(=O)NCNC(=O)c1ccc(-c2cncc(OC)c2)o1	< 0.398 µM	< 0.2 µM	< 0.126 µM	< 0.794 µM	–
CCCCC[C@H](CN(O)C=O)C(=O)NCNC(=O)c1ccc(-c2cccc(OCCN3CCCC3)c2)o1	< 0.398 µM	< 0.2 µM	< 0.126 µM	< 0.794 µM	–
CCCCC[C@H](CN(O)C=O)C(=O)NCNC(=O)c1ccc(-c2ccccc2O)o1	< 0.398 µM	< 0.2 µM	< 0.126 µM	< 0.794 µM	–
CCCCC[C@@H](C(=O)NCNC(=O)c1ccc(-c2cccc(/C(N)=N/O)c2)o1)[C@@H](CC)N(O)C=O	< 0.398 µM	< 0.2 µM	< 0.126 µM	< 0.794 µM	–
CCCCC[C@H](CN(O)C=O)C(=O)NCNC(=O)c1ccc(-c2ccccc2C(=O)O)o1	< 0.398 µM	< 0.2 µM	< 0.126 µM	< 0.794 µM	–
O=CN(O)C[C@@H](CC1CCCC1)C(=O)NCNC(=O)c1ccc(-c2ccccc2)o1	< 0.398 µM	< 0.2 µM	< 0.126 µM	< 0.794 µM	–
CCCCC[C@@H](C(=O)NCNC(=O)c1ccc(-c2ccccc2)o1)[C@@H](CO)N(O)C=O	< 0.398 µM	< 0.2 µM	< 0.126 µM	< 0.794 µM	–
O=CN(O)C[C@@H](CCCc1ccccc1)C(=O)NCNC(=O)c1ccc(-c2ccccc2)o1	< 0.398 µM	< 0.2 µM	< 0.126 µM	< 0.794 µM	–
CCCCC[C@H](CN(O)C=O)C(=O)NCNC(=O)c1ccc(-c2cccc(C(=O)NC)c2)o1	< 0.398 µM	< 0.2 µM	< 0.126 µM	< 0.794 µM	–
CCCCC[C@H](CN(O)C=O)C(=O)NCNC(=O)c1ccc(-c2ccc(C)c(C(=O)O)c2)o1	< 0.398 µM	< 0.2 µM	< 0.126 µM	< 0.794 µM	–
CCCCC[C@H](CN(O)C=O)C(=O)NCNC(=O)c1ccc(-c2ccc3c(c2)S(=O)(=O)NC3)o1	< 0.398 µM	< 0.2 µM	< 0.126 µM	< 0.794 µM	–
CCCCC[C@H](CN(O)C=O)C(=O)NCNC(=O)c1ccc(-c2cccc(OC)n2)o1	< 0.398 µM	< 0.2 µM	< 0.126 µM	< 0.794 µM	–
CCCCC[C@@H](C(=O)NCNC(=O)c1ccc(-c2ccc(OC)c(C(=O)O)c2)o1)[C@@H](CC)N(O)C=O	< 0.398 µM	< 0.2 µM	< 0.126 µM	< 0.794 µM	–
CCCCC[C@H](CN(O)C=O)C(=O)NCNC(=O)c1ccc(-c2cccc(P(=O)(OC)OC)c2)o1	< 0.398 µM	< 0.2 µM	< 0.126 µM	< 0.794 µM	–
